Reference: patent publication US20250121046A1, “MRNA THERAPEUTIC COMPOSITIONS” (Nutcracker Therapeutics, Inc., priority 2022, published 2025)
“Also recorded” adds a separate entry of the source.

Assays:
[1] = Rat toxicology study, control mRNA in DV-140-F2 intramuscular (Example 8); format: in vivo, Sprague-Dawley rats
Method: Briefly, Sprague-Dawley rats (n=8) were treated with a control mRNA formulated in DV-140-F2 at 0.03 or 0.3 mg/kg or PBS vehicle. Injections were done 4 times over the course of 13 days and were administered intramuscularly into the hind limb. Whole blood was taken for hematology, and serum taken for clinical chemistry and cytokine analysis at 6 hours post the first dose and final dose, and 2 weeks post the final dose. Additionally, 2 of the animals were sacrificed at 6 hours post the final dose and 2 weeks post final dose and a gross necropsy was performed. Tissue samples were retained and histopathology run on select organs.

[2] = Mouse efficacy studies, tolerability assessments (Example 8); format: in vivo
[3] = Rat toxicology study, control mRNA in DV-140-F2 intramuscular (Example 8); format: in vivo, Sprague-Dawley rats; conditions: Therapeutic dose scaled for rat: 4 doses in 2 weeks, 30 μg RNA IM
[4] = system: cervical cancer whose tumors express PD-L1 (CPS≥1); conditions: single agent, disease progression on or after chemotherapy, KEYNOTE-158; cited from earlier work
[5] = system: cervical cancer whose tumors express PD-L1 (CPS≥1); conditions: in combination with chemotherapy, with or without bevacizumab; cited from earlier work
CD3+ T cells = experiment: T cell proliferation in co-culture with LIGHT-transfected HEK cells (Example 1); format: cell-based, human; conditions: versus soluble (Wt) LIGHT
Method: (§1) LIGHT variants were formulated in MessengerMax mRNA Transfection Reagent. Human embryonic kidney (HEK) cells were transfected with the LIGHT variant constructs for cell surface expression of LIGHT. CellTrace Violet (Thermo Fischer Scientific) was used to label CD3+ T cells from the resulting peripheral blood mononuclear cells (PBMC). 100 ng/mL of soluble CD3 Antibody was added to the resulting labeled CD3+ T cells. The T cell proliferation and interferon-gamma (IFN-7) secretion was evaluated about 5 days of co-culture.

primary human T cells = experiment: Human T cell proliferation, ENG or WT hLIGHT mRNA with hIL-12 mRNA (Example 1A); format: cell-based; conditions: anti-CD3 30 or 100 ng/mL, 4 days, relative to IL-12 and WT hLIGHT
Method: This study was designed to compare the ability of ENG and WT hLIGHT mRNAs in combination with hIL-12 mRNA to stimulate primary human T cell proliferation. Human T cells were isolated from PBMCs from 1 healthy donor and stained with CellTrace Violet. HEK293 cells were transfected with hIL-12 mRNA (RNA-683) and WT hLIGHT (RNA-786) or ENG hLIGHT (RNA-1359) mRNA formulated in Lipofectamine MessengerMAX (0.5 ng each mRNA per 1000 cells). Control cells were transfected with noncoding mRNA control in the same way. Transfected HEK293 cells were cocultured with the T cells in a 1:5 ratio in the presence of 30 ng/mL or 100 ng/mL anti-CD3 antibody to mimic antigen specific TCR engagement for 4 days at 37° C., 5% CO2. CD8+ T cell proliferation was assessed by flow cytometry and the proliferation index was calculated. […] The results are shown in FIG. 10A, where ENG=engineered; HEK=human embryonic kidney; IL-12=interleukin-12; PBMC=peripheral blood mononuclear cell; WT=wildtype. The data in FIG. 10A represent mean±standard deviation (n=4). Statistical analysis was performed by unpaired student's t-test (P<0.05).

HEK cells = experiment: Surface expression of LIGHT on transfected cells by flow cytometry using HVEM binding; format: cell-based, human; conditions: compared to soluble (wild type) LIGHT
Excerpt: FIG. 2A-2D are graphs illustrating the membrane-bound protein produced by the membrane-stabilized LIGHT generated according to an aspect of this disclosure as compared to soluble LIGHT.
FIGS. 14A and 14B depict the assessment of surface expression of soluble LIGHT or membrane-stabilized LIGHT by flow cytometry using HVEM binding.
This enhanced membrane stability for the disclosed membrane-stabilized LIGHT may increase the beneficial activity of LIGHT.
as §1

HVEM = molecular target: T1, HVEM (Homo sapiens, UniProt Q92956); experiment: HVEM activation by LIGHT-transfected cells (HVEM reporter cell line); format: cell-based
T1 construct: host or cells: HVEM reporter cell line (not further described)
T1 sequence (Q92956 39-283): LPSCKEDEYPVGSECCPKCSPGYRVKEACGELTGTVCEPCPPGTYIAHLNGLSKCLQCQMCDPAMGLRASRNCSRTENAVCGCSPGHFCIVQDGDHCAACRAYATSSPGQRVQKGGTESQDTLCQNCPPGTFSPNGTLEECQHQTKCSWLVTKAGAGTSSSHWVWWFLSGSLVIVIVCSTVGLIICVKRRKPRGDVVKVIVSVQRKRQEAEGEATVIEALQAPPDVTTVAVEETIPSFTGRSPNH
Excerpt: FIGS. 1A and 1B depict the inhibition of the activation of membrane-stabilized LIGHT by soluble LIGHT.
FIG. 12 illustrates pre-blocking of soluble LIGHT in HVEM co-HEK transfected cells.
FIGS. 13A-13C are a comparison of HVEM activation with supernatant (blue) or cells (orange) for soluble LIGHT or membrane-stabilized LIGHT.
The incorporation of a modified membrane-stabilized LIGHT into a cancer immunotherapy allows for the effective targeting cancers, such as HPV-driven cancers.
[…] FIGS. 13A-13C show increased function of membrane-stabilized LIGHT on cells with HVEM reporter cell line and FIGS. 14A and 14B show increased cellular expression of membrane-stabilized LIGHT.

[6] = High dose in rat: 4 doses in 2 weeks, 100 μg RNA IM
[7] = Therapeutic dose in mouse: 3 doses 7 days apart, ~1-2 μg RNA IT or IM

CCCCCCCCCCN(CC(N)=O)C(=O)CN(CCCCCCCCCC)C(=O)CN(CCCCCCCCCC)C(=O)CN(CCCCCCCCCC)C(=O)CNCCO [Compound 140, N-(2-amino-2-oxoethyl)-N-decyl-2-(N-decyl-2-(N-decyl-2-(N-decyl-2-((2-hydroxyethyl)amino)acetamido)acetamido)acetamido)acetamide]
Gross organ pathology [1, 6]: None observed
Injection site reactions or other clinical observations [1, 6]: None observed
Clinical chemistries ([1]; High dose in rat: 4 doses in 2 weeks, 100 μg RNA IM, compared to control): No meaningful changes
Hematology parameters ([1]; High dose in rat: 4 doses in 2 weeks, 100 μg RNA IM, return to baseline by D30): Some transient changes
Serum cytokines ([1]; High dose in rat: 4 doses in 2 weeks, 100 μg RNA IM, subset of cytokines, return to baseline by D30): Elevated levels in subset
tolerability ([1]; rat toxicology studies): well-tolerated
Body weight [2, 7]: No changes compared
Injection site reactions or other clinical observations [2, 7]: None observed
tolerability ([2]; mouse efficacy studies): well-tolerated
Body weight [3]: No changes compared
Gross organ pathology [3]: None observed
Injection site reactions or other clinical observations [3]: None observed
Clinical chemistries ([3]; compared to control): No meaningful changes
Hematology parameters ([3]; compared to control): No changes compared
Serum cytokines ([3]; compared to control): No changes compared

pembrolizumab [KEYTRUDA]
objective response [4]: around 14%
overall survival [5]: improvements

B1: ENG hLIGHT: mRNA encoding human LIGHT with amino acids 66-92 replaced by 10 amino acid linker …; membrane-stabilized (nucleic acid)
chain: AGGCAUAGAAGUCGAGACACAGCCACUAAGUAAGCCACCAUGGAGGAGAGCGUGGUGCGGCCUAGCGUGUUCGUGGUCGACGGCCAGACCGACAUCCCCUUCACCAGACUGGGAAGAAGCCACAGAAGGCAGUCUUGCUCCGUGGCCAGAGUGGGCCUGGGCCUGCUCCUGCUGCUGAUGGGCGCUGGCCUGGCCGUGCAAGGCUGGUUCCUGCUGCAGCUGCACUGGCGGCUGGGCAGCAGCGCCUCUACCGAUAAGACCCACACCGUGAACCCUGCCGCCCACCUGACCGGCGCCAACAGCUCUCUGACCGGAUCUGGCGGACCUCUGCUGUGGGAGACACAGCUGGGCCUUGCUUUUCUGCGGGGCCUGAGCUACCACGACGGCGCUCUGGUGGUUACAAAGGCCGGCUACUACUACAUCUACAGCAAGGUGCAGCUGGGAGGCGUGGGUUGUCCACUGGGACUGGCCAGCACAAUCACACACGGCCUUUAUAAGCGGACCCCUAGAUACCCCGAGGAACUGGAACUGCUGGUCUCCCAGCAGAGCCCUUGCGGCAGAGCCACAAGCAGCAGCAGAGUGUGGUGGGACAGCUCAUUCCUGGGCGGCGUGGUGCAUCUGGAAGCCGGCGAGAAAGUGGUGGUCAGAGUGCUGGACGAGAGACUGGUGCGGCUGAGAGAUGGGACCCGCUCCUACUUCGGCGCCUUUAUGGUGUGAUAAGCGCCGCCUCCGGGACAGUGCACCCAGGCUGCGGCCCCUCCCCCGUCCUGGAGGUUCCCCAGCCCCACUUACCGCUUAAUGCGCCAAUAAACCAAUGAACGAAGCAAAAAAAAAAAAAAAAAAAAAAAAAAAAAAAAAAAAAAAAAAAAAAAAAAAAAAAAAAAAAAAAAAAAAAAAAAAAAAAAAAAAAAAAAAAAAAAAAAAAAAAAAAAAAAAAAAAAAAAAAAAAAAAAAAAAAAAAAAAAAAAAAAAAAAAAAAAAAAAAAAAAAAAAA
modifications: LIGHT ICD TM 1-66 RLG … LIGHT 92-240 1359, aka 1495 nt
notes: mRNA encoding human LIGHT with amino acids 66-92 replaced by 10 amino acid linker …; membrane-stabilized
T-cell proliferation (CD3+ T cells; listed as 1359): increase
T-cell proliferation (CD3+ T cells; listed as ENG LIGHT mRNA): increased
CD8+ T cell proliferation and survival (primary human T cells): increased
soluble fraction (HEK cells): significantly lower
cell-surface expression of membrane-bound protein (HEK cells; listed as ENG LIGHT mRNA): higher
cell-surface expression of membrane-bound protein (HEK cells; listed as Engineered LIGHT): significantly higher
bioactivity on transfected cells (HVEM; compared to WT LIGHT mRNA): higher

B2: 1356: mRNA encoding LIGHT ICD + TM (1-66) + (Gly4Ser)2 + LIGHT 92-240 (nucleic acid)
chain: AGGCAUAGAAGUCGAGACACAGCCACUAAGUAAGCCACCAUGGAAGAGUCUGUGGUCAGACCUAGCGUGUUCGUGGUCGACGGCCAGACCGACAUCCCCUUCACCAGACUGGGAAGAAGCCAUAGAAGACAGAGCUGCAGCGUGGCCAGAGUGGGCCUCGGCCUGCUGCUGCUGCUGAUGGGCGCUGGCCUGGCCGUGCAAGGCUGGUUCCUGCUGCAGCUGCACUGGCGGCUGGGCGGAGGCGGCGGCUCUGGCGGCGGAGGCUCCGUGAACCCCGCCGCCCACCUGACCGGCGCCAACAGCAGCCUGACAGGCAGCGGCGGUCCUCUGCUGUGGGAAACCCAGCUGGGACUGGCUUUUCUGAGAGGCCUGAGCUACCACGACGGCGCCCUGGUGGUGACCAAGGCCGGCUAUUACUACAUCUACAGCAAGGUGCAGCUGGGCGGCGUUGGAUGUCCUCUGGGCCUGGCUUCUACAAUCACCCACGGCCUGUACAAGCGGACCCCUAGAUACCCUGAGGAACUGGAGCUGCUGGUGUCCCAGCAGUCCCCAUGCGGCCGGGCCACAAGCUCUUCUAGAGUGUGGUGGGAUAGCAGCUUCCUGGGCGGAGUGGUGCACCUCGAGGCCGGAGAGAAAGUGGUGGUGCGGGUGCUGGAUGAGAGACUGGUUAGGCUGCGCGACGGCACACGGAGCUACUUCGGCGCCUUUAUGGUGUGAUAAGCGCCGCCUCCGGGACAGUGCACCCAGGCUGCGGCCCCUCCCCCGUCCUGGAGGUUCCCCAGCCCCACUUACCGCUUAAUGCGCCAAUAAACCAAUGAACGAAGCAAAAAAAAAAAAAAAAAAAAAAAAAAAAAAAAAAAAAAAAAAAAAAAAAAAAAAAAAAAAAAAAAAAAAAAAAAAAAAAAAAAAAAAAAAAAAAAAAAAAAAAAAAAAAAAAAAAAAAAAAAAAAAAAAAAAAAAAAAAAAAAAAAAAAAAAAAAAAAAAAAAAAAAAA
modifications: LIGHT ICD TM 1-66 RLG Gly4Ser 2 LIGHT 92-240 1356 nt
T-cell proliferation (CD3+ T cells): increase

B3: soluble LIGHT: Wild-type soluble human LIGHT (protein)
chain: MEESVVRPSVFVVDGQTDIPFTRLGRSHRRQSCSVARVGLGLLLLLMGAGLAVQGWFLLQLHWRLGEMVTRLPDGPAGSWEQLIQERRSHEVNPAAHLTGANSSLTGSGGPLLWETQLGLAFLRGLSYHDGALVVTKAGYYYIYSKVQLGGVGCPLGLASTITHGLYKRTPRYPEELELLVSQQSPCGRATSSSRVWWDSSFLGGVVHLEAGEEVVVRVLDERLVRLRDGTRSYFGAFMV
modifications: Human Wild Type LIGHT (786) aa
effect of soluble LIGHT on HVEM activation/signaling by membrane-stabilized LIGHT (HVEM; presence of soluble LIGHT): decreases; also recorded: competes for HVEM binding and reduces signaling
